Results on 1 compound are retold here after patent US12415939B2, “Nano-adhesive and surface primer compound and use thereof” (The Regents of the University of California, priority 2015, dated 2025).

The test is described as follows: Shear bonding strength of the lap joint. As to conditions: cross-sectional area 2.54 cm×2.54 cm, n=4. How it is done: The catecholic zwitterions were inspired by interfacial proteins (mfp-3 and -5) that function as adhesive primers, but not as bulk adhesives. To determine whether Z-Cat-C10 is limited to surface binding or develops measurable bulk cohesion (thickness […]), bulk rupture tests were done using a peeling-by-bending test to better mimic the role that interfacial proteins play in resisting plaque detachment as well as lap-shear bonding test. Lap joints were prepared by gluing two steel plates (SS304) immersed in water using the lower dense coacervate (˜10 μl) (FIGS. 24A-24H). The lap joint (cross-sectional area=2.54 cm×2.54 cm) prepared in artificial seawater or periodate solution, respectively, held a load up to 3 N underwater. […] After 12 h ambient drying, the joint prepared in 1 M periodate solution held much higher load, 11 N: Standard three point bending peel strength of the lap joint (cross-sectional area=2.54 cm×1.27 cm) was measured under ambient dry conditions after drying 12 h. […] Shear bonding strength of the lap joint (cross-sectional area=2.54 cm×2.54 cm) was also measured, 1.1 MPa (standard deviation=0.3, n=4)—similar to Dopa-functionalized polypeptide prepared under ambient dry conditions, 0.9 MPa. […]

With `CN(C)CCOP(=O)(O)OCCCc1ccc(O)c(O)c1` [Z-Cat-C10], the “shear bonding strength of the lap joint” value came to 1.1 MPa.
